The IC50 is the midpoint of a concentration-inhibition curve. A high value points to lower potency. In general, inhibition refers to the relative decrease from the control value, in per cent. Read a low inhibition as a weak effect.

The structures appear in SMILES notation.

6 compounds from patent US10647665B2, “Biaryl urea derivative or salt thereof and preparation process and use for the same” (Fudan University, priority 2016, dated 2020) can be followed below.

The target in experiment [1] is RORγ receptor (B-RORγ LBD) (Homo sapiens (Human), UniProt P51449). In words: Inhibitory activity on RORγ receptor in vitro by fluorescence resonance energy transfer (FRET). It is filed as biochemical. The note with it: average of at least two independent tests. The procedure:
The inhibitory activity of compounds on RORγ receptor was determined by fluorescence resonance energy transfer (FRET) experiments. The inhibitory activity was expressed by half-inhibitory concentration (IC50).
1. Preparation of RORγ Buffer Solution
10 mL of DTT and 100 mL buffer solution were gently mixed together and ready to use.
2. Preparation of Compound Solution
3. Preparation of Protein Mixture a. 40 nM B-RORγ LBD solution and 20 nM SA-APC solution were gently mixed together. The reaction mixture was incubated for 15 minutes at room temperature. Then 400 nM Biotin was added to the described above mixture. After gently mixed together, the resulting mixture was incubated for 10 minutes at room temperature. […]
b. 40 nM Bioin-SRC1 solution and 10 nM SA-eu solution were gently mixed together, and the reaction mixture was incubated for 15 minutes at room temperature. Then 200 nM Biotin was added to the described above mixture. After gently mixed together, the resulting mixture was incubated for 10 minutes at room temperature. […]
d. A mixture of 0.1 μM alternative agonist
N-(2-chloro-6-fluorophenyl)-N-((20-methoxy-[1,10-biphenylyl]-4-substituted)methyl)benzenesulfonamide, 25 μL B-RORγ LBD/SA-APC and Bioin-SRC1/SA-eu mixture solution with test compound were added to one of the well of a 384-well plate, then they were centrifuged for 1 minute at 1000 rpm, and incubated at room temperature for 1 hour. The values were read on the Envision microplate detector and IC50 was calculated.

Experiment [2] concerns Mouse Th17 cell differentiation. Briefly: Inhibition of mouse Th17 cell differentiation (IL-17 by intracellular staining and flow cytometry). The note with it: compound at 0.3 μM, mouse spleen CD4+ T cells, 96 hours. It is filed as cell-based. The procedure: Experimental method: Mouse spleen CD4^+ T cells were isolated and differentiated into Th17 cells. CD4^+ T cells were cultured in the environment of anti-CD3 (0.25 μg/mL), anti-CD28 (1 μg/mL), anti-IL4 (2 μg/mL), anti-IFN-γ (2 μg/mL), TGF-β (5 ng/mL), and IL6 (20 ng/mL), and then the test compound was added. After 96 hours, the differentiation efficiency of Th17 was analyzed. Before collection of cells, PMA at 50 ng/mL and ionomycin at 500 ng/mL were added for stimulation for 4 hours, and the ratio of IL-17 was detected by intracellular staining and flow cytometry. At the same time, we used Live/Dead Cell Dye (Invitrogen) staining method to analyze the cell survival rate, to judge whether the drug had toxicity to cells, and determine the inhibition rate of the compound at a concentration of 0.3 μM on IL-17 differentiation by Th 17 cells.
On the technique in general: A flow cytometer gives signals particle by particle.

Sequence of RORγ receptor (B-RORγ LBD) (P51449 269-508): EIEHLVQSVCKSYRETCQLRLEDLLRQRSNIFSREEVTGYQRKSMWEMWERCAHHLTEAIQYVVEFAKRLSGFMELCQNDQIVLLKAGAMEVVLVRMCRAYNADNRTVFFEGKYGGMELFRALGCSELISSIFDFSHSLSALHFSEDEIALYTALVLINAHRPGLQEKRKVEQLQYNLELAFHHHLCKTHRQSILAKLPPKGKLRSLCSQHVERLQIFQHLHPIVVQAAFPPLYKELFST

In turn, `O=C(O)Cc1ccc(CNC(=O)Nc2cc(F)c(-c3ccccc3OC(F)(F)F)c(F)c2)cc1` [Example 1-19, 2-(4-((3-(2,6-difluoro-2′-(trifluoromethoxy)-[1,1′-biphenyl]-4-yl)ureido)methyl)phenyl)acetic acid] yielded an IC50 in experiment [1] of 500 to 5000 nM. In experiment [2], this compound displayed an inhibition at 0.3 µM of 0 to 40%.
The like results for `O=C(O)Cc1ccc(CNC(=O)Nc2cc(Cl)c(-c3ccccc3OC(F)F)c(Cl)c2)cc1` [Example 1-20, 2-(4-((3-(2,6-dichloro-2′-(difluoromethoxy)-[1,1′-biphenyl]-4-yl)ureido)methyl)phenyl)acetic acid] were, in that order, below 500 nM and 0 to 40%.
For `Cc1cc(NC(=O)NCc2ccc(CC(=O)O)cc2)cc(C)c1-c1ccccc1OC(F)F` [Example 1-21, 2-(4-((3-(2′-(difluoromethoxy)-2,6-dimethyl-[1,1′-biphenyl]-4-yl)ureido)methyl)phenyl)acetic acid] the same measures were below 500 nM and 0 to 40%.
The like results for `Cn1cc(-c2cc(NC(=O)NCc3ccc(CC(=O)O)cc3)ccc2-c2ccccc2OC(F)(F)F)cn1` [Example 1-22a, 2-(4-((3-(2-(1-methyl-1H-pyrazol-4-yl)-2′-(trifluoromethoxy)-[1,1′-biphenyl]-4-yl)ureido)methyl)phenyl)acetic acid] were, in that order, 500 to 5000 nM and 0 to 40%.
Take `Cn1cc(-c2cccc(OC(F)(F)F)c2-c2ccc(NC(=O)NCc3ccc(CC(=O)O)cc3)cc2)cn1` [Example 1-22b, 2-(4-((3-(2′-(1-methyl-1H-pyrazol-4-yl)-6′-(trifluoromethoxy)-[1,1′-biphenyl]-4-yl)ureido)methyl)phenyl)acetic acid]: in experiment [1], the IC50 is 500 to 5000 nM. The same compound displayed an inhibition at 0.3 µM in experiment [2] of 0 to 40%.
For `O=C(O)Cc1ccc(CNC(=O)Nc2ccc(-c3ccccc3)cc2)cc1` [Example 1-23, 2-(4-((3-([1,1′-biphenyl]-4-yl)ureido)methyl)phenyl)acetic acid] the same measures were 5000 to 50000 nM and 0 to 40%.
